In US20250051578A1, “RHODAMINE-METHYLENE BLUE DERIVATIVE FLUORESCENT PROBE AND PREPARATION METHOD AND APPLICATION THEREOF” (Henan Polytechnic University, priority 2023, published 2025):
Entries after “also recorded” stand apart in the source; their conditions may differ.

System: Raw246.7 cells
Assay: Dual-channel confocal fluorescence imaging of ClO^− and ATP in cells
Assay type: cell-based
Conditions: for fluorescence of the NIR channel (ClO^− level) versus control group / fluorescence of the yellow channel (ATP level) versus control group: Raw246.7 cells incubated with the substance 1 h, then fluorescent probe 1×10^−5 mol/L 30 min
Method: After Raw246.7 cells are incubated with relevant steps, fluorescence imaging is performed by an Olympus FV500-IX70 laser confocal microscope, and results of the fluorescence imaging are shown in FIG. 6. Control group (Control): the Raw246.7 cells are incubated with the fluorescent probe (1×10^−5 mol/L) for 30 minutes (min). Oligomycin A (Omy A) group: the Raw246.7 cells are incubated with Omy A (2×10^−5 mol/L) for 1 h and then incubated with the fluorescent probe (1×10^−5 mol/L) for 30 min. Omy A+ATP group: the Raw246.7 cells are incubated with Omy A (2×10^−5 mol/L) for 1 h to obtain incubated cells, the incubated cells are incubated with the ATP (1×10^−3 mol/L) for 1 h and then incubated with the fluorescent probe (1×10^−5 mol/L) for 30 min. N-acetylcysteine (NAC) group: the Raw246.7 cells are incubated with NAC (5×10^−4 mol/L) for 1 h and then incubated with the fluorescent probe (1×10^−5 mol/L) for 30 min. NAC+ClO^− group: the Raw246.7 cells are incubated with NAC (5×10^−4 mol/L) for 1 h to obtain incubated cells, the incubated cells are incubated with ClO^− (2×10^−4 mol/L) for 1 h and then incubated with the fluorescent probe (1×10^−5 mol/L) for 30 min.
After the Raw246.7 cells are incubated with relevant steps, the fluorescence imaging is performed by the Olympus FV500-IX70 laser confocal microscope, and results of the fluorescence imaging are shown in FIG. 7. Control group (Control): the Raw246.7 cells are incubated with the fluorescent probe (1×10^−5 mol/L) for 30 min, and a concentration of glucose (Glu) in a culture media is 5.5×10^−3 mol/L. Lipopolysaccharide (LPS) group: the Raw246.7 cells are incubated with LPS ([…]) for 1 h and then incubated with the fluorescent probe (1×10^−5 mol/L) for 30 min. No Glu group: the Raw246.7 cells are incubated with the fluorescent probe (1×10^−5 mol/L) for 30 min, and no Glu is added to the culture media. High Glu group: the Raw246.7 cells are incubated with the fluorescent probe (1×10^−5 mol/L) for 30 min, and the concentration of Glu in the culture media is 2.5×10^−2 mol/L. Acetaminophen (C8H9NO2, APAP) group: the Raw246.7 cells are incubated with […] for 1 h and then incubated with the fluorescent probe (1×10^−5 mol/L) for 30 min.

With `CC[C@@H]1/C=C/C=C/C[C@H](C)[C@H](O)[C@](C)(O)C(=O)[C@H](C)[C@@H](O)[C@H](C)C(=O)[C@H](C)[C@@H](O)[C@H](C)/C=C/C(=O)O[C@H]2[C@@H](C)[C@@H](CC1)O[C@@]1(CC[C@@H](C)[C@@H](C[C@H](C)O)O1)[C@@H]2C` [Omy A, Oligomycin A] the “fluorescence of the NIR channel (ClO^− level) versus control group” value was “significantly enhanced” and the “fluorescence of the yellow channel (ATP level) versus control group” value was “significantly weakened”.
With `CC(=O)Nc1ccc(O)cc1` [APAP, Acetaminophen] the “fluorescence of the NIR channel (ClO^− level) versus control group” value was “significantly enhanced” and the “fluorescence of the yellow channel (ATP level) versus control group” value was “almost non-fluorescent”.
`CC(=O)N[C@@H](CS)C(=O)O` [NAC, N-acetylcysteine] was tested, and the “fluorescence of the NIR channel (ClO^− level) versus control group” value was “significantly weakened” and the “fluorescence of the yellow channel (ATP level) versus control group” value was “significantly enhanced”.
For `CCN(CC)c1ccc2c(c1)Oc1cc(N(CC)CC)ccc1C21c2ccccc2C(=O)N1CCN1CCN(C(=O)N2c3ccc(N(C)C)cc3Sc3cc(N(C)C)ccc32)CC1`, the “detection of ClO^− in cells by the probe” value (Raw246.7 cells, probe 1×10^−5 mol/L 30 min, NIR channel, listed as fluorescent probe) was “can detect exogenous ClO^− in cells; also recorded: can detect endogenous ClO^−” and the “detection of ATP in cells by the probe” value (Raw246.7 cells, probe 1×10^−5 mol/L 30 min, yellow channel, listed as fluorescent probe) was “can detect exogenous ATP in cells; also recorded: can detect endogenous ATP”.
For Lipopolysaccharide [LPS], the “fluorescence of the NIR channel (ClO^− level) versus control group” value was “significantly enhanced” and the “fluorescence of the yellow channel (ATP level) versus control group” value was “significantly weakened”.
